Results: paper PMC6722823, “Peptide Antagonists for P-selectin Discriminate between Sulfatide-Dependent Platelet Aggregation and PSGL-1-Mediated Cell Adhesion” (Journal of Clinical Medicine, 2019)
Blank lines part the entries; values can stand above or below the molecule they belong to. Positions of bridges follow the written chain, without caps; N, C: chain ends. Residues, ends and D or L forms follow the SMILES beside them. No end group written: not given here.

How the values were obtained:
[1] = target: T1, P-selectin (Homo sapiens, UniProt P16109); assay: Competition of [3H]-CE-labeled sulfatide liposome binding to P-selectin-coated wells; settings: for Change in Sf42 liposome binding to P-selectin: Sf42 liposomes 100 μg/mL; for Change in Sf57 liposome binding to P-selectin: Sf57 liposomes 100 μg/mL; for Change in Sf28 liposome binding to P-selectin: Sf28 liposomes 100 μg/mL; for EC50: Sf28 liposomes (28% sulfatide)
T1 construct: purchased R&D systems (Minneapolis, MN, USA)
Experimental: Liposomes were prepared by sonication as follows. Egg yolk phosphatidylcholine, cholesterol, and sulfatides, all dissolved in chloroform/methanol (1:1, v/v), were mixed at weight ratios of 4:0.8:0 (named Sf0), 4:0.8:1.3 (Sf21), 2.5:0.8:1.3 (Sf28), 1:0.8:1.3 (Sf42), and 0.2:0.8:1.3 mg/mL (Sf57). The Sf numbers indicate the number of sulfatides as a percentage of total lipid weight. A tracer amount of [^3H]-cholesteryl oleate ([^3H]-CE; 1.3 × 10^8 dpm (disintegrations per minute)) was added, and the organic solvent was evaporated by a stream of nitrogen. The resulting lipid layer was vortexed in 1 mL phosphate buffered saline (PBS) and subsequently sonicated for 40 min at 54 °C using a Soniprep 150 (MSE Scientific Instruments, Crawley, UK) at 18 µm amplitude. Particle sizes were determined by photon correlation spectroscopy (Malvern 4700 C System, Malvern Instruments, Malvern, UK) at 25 °C and a 90° angle between laser and detector. […] Liposomes were stored at 4 °C under argon and used for characterization and metabolic studies within 7 days following preparation, during which no physicochemical changes occurred. As the liposomes were equal in size and incorporation of the radioactive label was quantitative, the specific activity of each sulfatide-bearing liposome was calculated as the amount of [^3H]-cholesteryloleate (dpm) divided by the total lipid content (ng).
Fc-specific goat anti-human IgG (10 μg/mL) was coated overnight at 4 °C in a high binding 96-well plate (Costar, Corning, UK) in coating buffer (50 mM NaHCO3, pH 9.6). Then, wells were washed with assay buffer (20 mmol/L HEPES, 150 mmol/L NaCl, 1 mmol/L CaCl2, pH 7.4) and incubated for 1 h at 37 °C with blocking buffer (3% bovine serum albumin (BSA) in assay buffer). After washing, wells were incubated with fusion proteins of IgG and P-, E-, or L-selectin (0.3 μg/mL, 2 h, 37 °C), washed with assay buffer, and subsequently incubated for 2 h at 4 °C with a concentration range of [^3H]-CE-labeled liposomes (0–800 µg lipid per mL assay buffer containing 0.2% BSA). For competition studies, labeled liposomes (1 × 10^5 dpm/well) were incubated in the presence of peptides or antibodies at the indicated concentrations. After removal of unbound liposomes by washing four times with assay buffer, bound liposomes were collected in 2-propanol/butanol/water (50:25:20, by vol.) and counted for radioactivity using a scintillation counter. Since the sulfatide liposomes were equal in size, the recovered amount of [^3H]-CE could be used to calculate the binding capacity of P-selectin for the sulfatide liposomes, as well as the recovered amount of lipid (ng/well) based on the specific activity.

[2] = tested on: human platelets; assay: ADP-induced platelet aggregation in human platelet-rich plasma (optical aggregometry); type: cell-based; settings: 10 μM ADP
Text: Freshly drawn venous blood from healthy volunteers was obtained through the Mini Donor Service, a blood donation facility for research purposes, that is approved by the Medical Ethics Committee of the University Medical Center Utrecht (protocol number 07-125). All donors provided written informed consent, in accordance with the Declaration of Helsinki for blood collection through this service. All participant information is kept confidential, and only Mini Donor Service personnel have access to the information provided. The donors were free of medication for at least two weeks before blood collection. Overnight fasting before blood collection was not necessary. Blood was collected into 0.1 volume 130 mmol/L trisodium citrate and was processed the same day and within 6 h. For aggregation studies, platelet-rich plasma (PRP) was prepared by centrifugation (150 g, 15 min, 20 °C) and adjusted to a final concentration of 2×10^11 platelets/L with platelet-poor plasma prepared from the remaining blood (1100 g, 10 min, 20 °C). […]
(§1) Human PRP was incubated with peptide antagonists (100 μmol/L, 5 min, 37 °C) or vehicle and stimulated with 10 μmol/L ADP under constant stirring at 1000 rpm (37 °C). Optical aggregation was monitored in a Chrono-Log Lumi-aggregometer (Chrono-Log Corporation, Havertown, PA, USA).

[3] = tested on: human platelets; assay: Aggregate size after ADP-induced aggregation of human PRP (light microscopy); type: cell-based; settings: 100 μM
Experimental: as §1
After 15 min, aggregates were fixed in 1 volume 0.5% glutaraldehyde in PBS and applied to microscope slides. Aggregates were dehydrated with methanol and stained with May-Grünwald/Giemsa. The aggregate size was measured by light microscopy equipped with a JAI-CCD camera (Copenhagen, Denmark) coupled to a Matrox frame grabber (Matrox Electronic Systems Ltd., Dorval, Quebec, Canada) using the ‘watershed’ function of the Optimas 6.2 software (Optimas Inc., Seattle, WA, USA). Results were expressed as mean aggregate size (μm^2).

[4] = target: P-selectin binding to HL60 cells (PSGL-1) (Homo sapiens, UniProt P16109); settings: displacement of P-selectin binding to HL60 cells; ref Molenaar et al. [28]; cited from earlier work
[5] = target: T1, P-selectin; assay: Surface plasmon resonance (Biacore), sulfatide-coated L1 chip, P-selectin; type: binding; settings: Fc fusion protein 40 nM
Experimental: (§2) A Biacore 2000 instrument (Biacore AB, Uppsala, Sweden) was used to analyze the interaction between sulfatides and P-, L, and E-selectins, as described. Experiments were performed at room temperature using running buffer (20 mmol/L HEPES, 150 mmol/L NaCl, 1 mmol/L CaCl2, 0.005% Surfactant P20, pH 7.4). Sulfatides were immobilized on L1 sensor chips at 5 μL/min according to the manufacturer’s instructions. Binding kinetics of human fusion proteins IgG and P-, L- and E- selectins to the immobilized sulfatides were determined by injection of the fusion proteins. At the end of each injection, the sensor chips were regenerated with 100 mmol/L NaOH and equilibrated with running buffer. All curves were corrected for non-specific binding by an online baseline subtraction of ligand binding to a control flow channel. Binding kinetics were analyzed using BIAevaluation software (V2.1; Pharmacia Biosensor, Uppsala, Sweden).
Target sequence in this assay (P16109 with tags, fused parts or gaps limits assumed): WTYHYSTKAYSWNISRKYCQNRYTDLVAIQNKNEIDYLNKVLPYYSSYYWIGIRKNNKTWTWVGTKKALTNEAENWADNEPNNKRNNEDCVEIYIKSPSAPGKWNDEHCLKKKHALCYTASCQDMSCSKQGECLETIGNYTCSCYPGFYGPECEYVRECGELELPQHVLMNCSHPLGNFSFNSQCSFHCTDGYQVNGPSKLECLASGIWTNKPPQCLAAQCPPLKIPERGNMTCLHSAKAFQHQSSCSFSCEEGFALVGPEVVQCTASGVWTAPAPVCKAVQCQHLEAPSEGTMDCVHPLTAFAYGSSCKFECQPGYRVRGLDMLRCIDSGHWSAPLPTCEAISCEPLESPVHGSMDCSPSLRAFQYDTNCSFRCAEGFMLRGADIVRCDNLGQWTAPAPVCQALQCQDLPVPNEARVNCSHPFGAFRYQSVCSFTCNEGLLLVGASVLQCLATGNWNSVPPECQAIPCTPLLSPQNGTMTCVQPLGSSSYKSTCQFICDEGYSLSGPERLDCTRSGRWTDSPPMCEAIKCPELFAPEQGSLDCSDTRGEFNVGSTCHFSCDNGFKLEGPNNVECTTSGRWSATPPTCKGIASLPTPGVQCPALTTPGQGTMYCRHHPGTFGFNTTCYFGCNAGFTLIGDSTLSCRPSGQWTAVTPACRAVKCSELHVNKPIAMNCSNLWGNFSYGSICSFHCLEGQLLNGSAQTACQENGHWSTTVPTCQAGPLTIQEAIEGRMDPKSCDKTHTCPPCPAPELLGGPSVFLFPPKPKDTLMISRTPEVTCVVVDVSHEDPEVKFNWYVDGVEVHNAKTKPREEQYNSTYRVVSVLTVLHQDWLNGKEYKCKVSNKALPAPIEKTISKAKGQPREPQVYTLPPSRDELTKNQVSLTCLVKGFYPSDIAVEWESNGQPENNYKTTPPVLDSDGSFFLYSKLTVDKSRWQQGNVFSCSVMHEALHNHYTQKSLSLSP

[6] = target: T2, L-selectin (Homo sapiens, UniProt P14151); assay: Surface plasmon resonance (Biacore), sulfatide-coated L1 chip, L-selectin; type: binding; settings: Fc fusion protein 40 nM
T2 sequence (P14151 39-318 limits assumed): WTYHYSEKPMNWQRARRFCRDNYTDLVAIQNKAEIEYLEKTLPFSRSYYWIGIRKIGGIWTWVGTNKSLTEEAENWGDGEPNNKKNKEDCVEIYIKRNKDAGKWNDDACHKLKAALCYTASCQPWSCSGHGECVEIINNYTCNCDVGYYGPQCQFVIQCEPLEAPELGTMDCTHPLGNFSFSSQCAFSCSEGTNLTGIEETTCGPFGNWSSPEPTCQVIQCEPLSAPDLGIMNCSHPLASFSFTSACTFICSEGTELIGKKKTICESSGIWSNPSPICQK
Experimental: as §2

[7] = target: T3, E-selectin (Homo sapiens, UniProt P16581); assay: Surface plasmon resonance (Biacore), sulfatide-coated L1 chip, E-selectin; type: binding; settings: Fc fusion protein 40 nM
T3 construct: purchased R&D systems (Minneapolis, MN, USA)
Experimental: as §2

[8] = target: human P-selectin-IgG (human) (UniProt P16109)
[9] = target: T4, human P-selectin-IgG (human, UniProt P16109 42-771); assay: radioligand binding; displacement: P-selectin-IgG (0.3 ug/mL) captured on Fc-specific goat anti-human IgG in 96-well plates; [3H]-cholesteryl oleate-labelled Sf28 sulfatide liposomes (1 x 10^5 dpm/well) with increasing amounts of peptide; 2 h, 4 C; 20 mmol/L HEPES, 150 mmol/L NaCl, 1 mmol/L CaCl2, pH 7.4, 0.2% BSA; settings: both partners purified
T4 construct: P-selectin, human, fused to IgG (Fc); Captured in the wells through Fc-specific goat anti-human IgG; also called human Fc fusion protein of P-selectin; fusion protein of IgG and P-selectin; source: bought: R&D systems
T4 sequence (looked up): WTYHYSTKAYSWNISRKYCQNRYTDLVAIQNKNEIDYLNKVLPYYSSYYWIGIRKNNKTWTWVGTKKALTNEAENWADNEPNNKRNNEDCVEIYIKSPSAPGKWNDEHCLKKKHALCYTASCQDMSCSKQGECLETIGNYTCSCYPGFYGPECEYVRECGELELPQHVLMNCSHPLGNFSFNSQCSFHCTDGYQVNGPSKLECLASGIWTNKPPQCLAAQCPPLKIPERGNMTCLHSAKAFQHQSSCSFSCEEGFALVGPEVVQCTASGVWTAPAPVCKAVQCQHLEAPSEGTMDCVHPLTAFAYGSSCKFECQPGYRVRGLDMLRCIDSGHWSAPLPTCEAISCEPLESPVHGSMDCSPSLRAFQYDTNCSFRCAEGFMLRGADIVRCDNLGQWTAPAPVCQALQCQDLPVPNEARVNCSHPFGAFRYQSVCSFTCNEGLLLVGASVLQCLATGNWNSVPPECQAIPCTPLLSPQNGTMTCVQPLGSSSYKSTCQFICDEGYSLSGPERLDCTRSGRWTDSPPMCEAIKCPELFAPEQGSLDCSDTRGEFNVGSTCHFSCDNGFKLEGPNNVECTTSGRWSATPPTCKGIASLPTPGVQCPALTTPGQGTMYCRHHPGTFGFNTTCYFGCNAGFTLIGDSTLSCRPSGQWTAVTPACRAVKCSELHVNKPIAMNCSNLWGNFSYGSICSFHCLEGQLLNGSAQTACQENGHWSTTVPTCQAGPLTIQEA

P-selectin binding to HL60 cells (PSGL-1), sequence (P16109 42-830 limits assumed): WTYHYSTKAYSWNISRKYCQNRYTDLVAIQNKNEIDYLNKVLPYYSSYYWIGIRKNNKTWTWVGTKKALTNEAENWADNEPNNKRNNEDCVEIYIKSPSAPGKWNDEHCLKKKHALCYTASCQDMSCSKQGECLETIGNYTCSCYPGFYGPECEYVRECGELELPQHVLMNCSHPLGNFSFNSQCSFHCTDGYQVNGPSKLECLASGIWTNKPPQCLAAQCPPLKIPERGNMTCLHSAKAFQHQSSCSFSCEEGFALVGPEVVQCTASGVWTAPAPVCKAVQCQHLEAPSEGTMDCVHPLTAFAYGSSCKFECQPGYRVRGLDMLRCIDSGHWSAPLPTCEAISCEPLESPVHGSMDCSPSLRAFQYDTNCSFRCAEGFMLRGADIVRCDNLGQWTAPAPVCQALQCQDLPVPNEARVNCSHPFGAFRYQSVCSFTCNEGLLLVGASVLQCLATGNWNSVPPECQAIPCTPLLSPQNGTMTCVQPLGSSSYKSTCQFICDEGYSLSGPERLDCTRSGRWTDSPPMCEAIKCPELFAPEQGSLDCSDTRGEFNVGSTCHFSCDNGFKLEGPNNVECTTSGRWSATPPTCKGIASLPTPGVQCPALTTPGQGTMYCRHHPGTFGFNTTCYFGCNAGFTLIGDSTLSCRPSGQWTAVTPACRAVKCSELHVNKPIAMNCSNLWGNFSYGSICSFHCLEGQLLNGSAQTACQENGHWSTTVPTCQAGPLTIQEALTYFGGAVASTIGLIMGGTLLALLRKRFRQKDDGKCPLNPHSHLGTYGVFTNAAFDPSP
T3 sequence (P16581 with tags, fused parts or gaps limits assumed): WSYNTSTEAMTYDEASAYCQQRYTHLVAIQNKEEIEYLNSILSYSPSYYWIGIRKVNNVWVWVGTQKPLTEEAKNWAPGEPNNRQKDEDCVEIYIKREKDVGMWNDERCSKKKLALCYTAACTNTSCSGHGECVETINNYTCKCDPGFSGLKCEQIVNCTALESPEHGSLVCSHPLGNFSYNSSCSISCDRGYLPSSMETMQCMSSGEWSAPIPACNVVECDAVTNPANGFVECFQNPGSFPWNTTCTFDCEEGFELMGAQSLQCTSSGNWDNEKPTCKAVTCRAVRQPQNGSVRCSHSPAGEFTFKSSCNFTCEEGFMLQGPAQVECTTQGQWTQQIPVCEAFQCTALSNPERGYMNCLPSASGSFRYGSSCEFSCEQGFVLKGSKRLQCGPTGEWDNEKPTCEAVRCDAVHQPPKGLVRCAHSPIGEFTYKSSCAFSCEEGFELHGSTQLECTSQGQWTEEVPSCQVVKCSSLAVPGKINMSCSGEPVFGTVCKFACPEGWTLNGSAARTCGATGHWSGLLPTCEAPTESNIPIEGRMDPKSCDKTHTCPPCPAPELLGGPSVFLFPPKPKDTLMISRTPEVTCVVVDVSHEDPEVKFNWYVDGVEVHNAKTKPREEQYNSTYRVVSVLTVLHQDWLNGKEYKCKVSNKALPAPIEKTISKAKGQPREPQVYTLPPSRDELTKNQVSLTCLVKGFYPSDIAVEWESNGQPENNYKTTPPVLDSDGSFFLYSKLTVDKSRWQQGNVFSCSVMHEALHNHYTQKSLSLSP

Molecule: CC(C)[C@@H]1NC(=O)[C@H](CC(=O)O)NC(=O)[C@H](C(C)C)NC(=O)[C@H](Cc2c[nH]c3ccccc23)NC(=O)[C@H](CCC(=O)O)NC(=O)[C@H](C(C)C)NC(=O)[C@H](CC(=O)O)NC(=O)[C@@H](N)CSSC[C@@H](C(=O)O)NC(=O)[C@H](CO)NC1=O [CDVEWVDVSC] (H-CDVEWVDVSC-OH; disulfide 1-10 (inferred); N-terminus and C-terminus assumed)
Change in Sf42 liposome binding to P-selectin ([1]; 0.5 µM): did not affect | Change in Sf57 liposome binding to P-selectin ([1]; 0.5 µM): did not affect | Initial slope of platelet aggregation ([2]; 100 μM peptide): remained unaltered | Aggregation: percentage inhibition of platelet aggregation ([2]; 100 µM peptide, human PRP, maximum aggregation): 43% (p<0.001) | Reduction of mean aggregate size ([3]; ADP-induced aggregation of human PRP): about 90% | Aggregates smaller than 1000 μm^2 ([3]; 15% in the absence of inhibitors): 76%

Molecule: AVEWVDVS [AVEWVDVS]
EC50 [1]: > 1000 µM | EC50 [4]: 12 µM

Molecule: DAEWVDVS [DAEWVDVS]
EC50 [1]: > 1000 µM | EC50 [4]: 19 µM

Molecule: DVAWVDVS [DVAWVDVS]
EC50 [1]: > 1000 µM | EC50 [4]: 41 µM

Molecule: DVEAVDVS [DVEAVDVS]
EC50 [1]: > 1000 µM | EC50 [4]: > 1000 µM

Molecule: DVEWADVS [DVEWADVS]
EC50 [1]: > 1000 µM | EC50 [4]: > 1000 µM

Molecule: DVEWVAVS [DVEWVAVS]
EC50 [1]: > 1000 µM | EC50 [4]: > 1000 µM

Molecule: DVEWVDAS [DVEWVDAS]
EC50 [1]: > 1000 µM | EC50 [4]: > 1000 µM

Molecule: DVEWVDVA [DVEWVDVA]
EC50 [4]: 7 µM

Molecule: DVEWVDVS [DVEWVDVS]
EC50 [1]: 12 µM | EC50 [4]: 11 µM

B3: CDVEWVDVSC (peptide)
peptide: CDVEWVDVSC
notes: also called peptide antagonist; elongated EWVDV peptide
EC50 [9]: 0.2 µM

B4: DVEWVDVA (peptide)
peptide: DVEWVDVA
notes: also called elongated EWVDV peptide
EC50 [9]: 8 µM

Further lines, with some results ahead:

Change in Sf28 liposome binding to P-selectin ([1]; 10 mM): −79% | Change in Sf42 liposome binding to P-selectin ([1]; 10 mM): did not affect | Change in Sf57 liposome binding to P-selectin ([1]; 10 mM): did not affect
Molecule: O=C(O)CN(CCN(CC(=O)O)CC(=O)O)CC(=O)O [EDTA, reference compound]

EC50 [1]: > 1000 µM | IC50 ([1]; abstract): > 1000 µM
Molecule: EWVDV [EWVDV]
EC50 [4]: 12 µM

EC50 [1]: > 1000 µM
Molecule: EWVKV [EWVKV]
EC50 [4]: > 1000 µM

EC50 [1]: > 1000 µM
Molecule: VEWVDV [VEWVDV]
EC50 [4]: 13 µM

Binding of P-selectin to sulfatide-coated sensor chip [5]: bind | Binding of L-selectin to sulfatide-coated sensor chip [6]: bind | Binding of E-selectin to sulfatide-coated sensor chip [7]: not E-selectin
Molecule: cerebroside sulfate, bovine [Sulfatides]

Change in Sf28 liposome binding to P-selectin ([1]; 15 µg/mL): −88% | Change in Sf42 liposome binding to P-selectin ([1]; 15 µg/mL): −97% | Change in Sf57 liposome binding to P-selectin ([1]; 15 µg/mL): −68%
Molecule: rPSGL-1-Ig: recombinant PSGL-1 immunoglobulin fusion, P-selectin inhibitor

Percentage inhibition of ADP-induced aggregation of human platelet-rich plasma at 100 uM peptide (sulfatide/P-selectin-dependent aggregation) [8]: 12%
B1: EWVDV (peptide)
peptide: EWVDV

Percentage inhibition of ADP-induced aggregation of human platelet-rich plasma at 100 uM peptide (sulfatide/P-selectin-dependent aggregation) [8]: 0%
B2: EWVKV (peptide)
peptide: EWVKV
